Reference: patent publication US20070104644A1, “Inhibitor imaging agents” (priority 2003, published 2007)
Numbered stars: 1 amine (or outer) side, 2 acyl side, 3 side chain; on linkers, the order of the positions; unused ones are H or OH. Square brackets hold non-standard residues; d marks the D form. Peptide text beside a SMILES is read from it. * marks the point of attachment. Tyr(3-I) = N[C@@H](Cc1ccc(O)c(I)c1)C(=O)O; X2 = O=C(NO)C1(N(CCC(=O)[*:2])[*:1])CCCC1; X1 = O=S(=O)(c1ccc(Oc2ccc(F)cc2)cc1)*

Key:
MMP-1 = biological target: T1, MMP-1 (Homo sapiens, UniProt P03956); experiment: MMP-1 colorimetric assay kit (Biomol AK-404); type: biochemical
T1 sequence (P03956 100-469): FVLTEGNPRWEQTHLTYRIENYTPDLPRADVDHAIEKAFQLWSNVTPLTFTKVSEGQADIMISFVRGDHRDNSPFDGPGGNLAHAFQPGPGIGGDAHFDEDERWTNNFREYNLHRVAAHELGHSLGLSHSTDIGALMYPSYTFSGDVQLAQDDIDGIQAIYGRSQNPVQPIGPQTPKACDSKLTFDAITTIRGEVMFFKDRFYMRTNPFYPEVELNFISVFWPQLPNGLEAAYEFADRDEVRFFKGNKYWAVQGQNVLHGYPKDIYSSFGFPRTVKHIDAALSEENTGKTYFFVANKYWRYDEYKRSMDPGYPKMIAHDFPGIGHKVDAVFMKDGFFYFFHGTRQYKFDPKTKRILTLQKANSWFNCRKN
Description: (§1) Compounds were screened using the following commercially available Biomol assay kits: • MMP-1 colorimetric assay kit—Catalogue number AK-404, • MMP-2 colorimetric assay kit—Catalogue number AK-408, • MMP-8 calorimetric assay kit—Catalogue number AK-414, • MMP-9 calorimetric assay kit—Catalogue number AK-410, • MMP-12 colorimetric assay kit—Catalogue number AK-402, Which are available from Affiniti Research Products Ltd. (Palatine House, Matford Court, Exeter, EX2 8NL, UK).
(§2) Inhibitors were provided in powdered form, and stored at 4° C. For each inhibitor a 1 mM stock solution in DMSO was prepared, dispensed into 20 μl aliquots and these aliquots stored at −20° C. The stock solution was diluted to give 8 inhibitor concentrations (recommended: 50 μM, 5 μM, 500 nM, 50 nM, 5 nM, 500 pM, 50 pM and 5 pM). Dilutions were made in the kit assay buffer. A five-fold dilution of the inhibitor stocks is made on addition to the assay wells, therefore final concentration range was from 10 μM to 1 pM.
(§3) Details are provided with the commercial kit, but can be summarised as follows: • Prepare test compound dilutions as above, • Add assay buffer to plate, • Add test compounds to plate • Prepare standard kit inhibitor NNGH (see kit for dilution factor) • Add NNGH to control inhibitor wells • Prepare MMP enzyme (see kit for dilution factor) • Add MMP to plate • Incubate plate at 37° C. for ˜15 min • Prepare thiopeptolide substrate (see kit for dilution factor) • Add substrate to plate • Count every 2 min for 1 hr, 37° C., 414 nm on a Labsystems iEMS plate reader (for MMP-1 count every 30 seconds for 20 minutes).

MMP-2 = biological target: T2, MMP-2 (Homo sapiens, UniProt P08253); experiment: MMP-2 colorimetric assay kit (Biomol AK-408); type: biochemical
T2 sequence (P08253 110-660): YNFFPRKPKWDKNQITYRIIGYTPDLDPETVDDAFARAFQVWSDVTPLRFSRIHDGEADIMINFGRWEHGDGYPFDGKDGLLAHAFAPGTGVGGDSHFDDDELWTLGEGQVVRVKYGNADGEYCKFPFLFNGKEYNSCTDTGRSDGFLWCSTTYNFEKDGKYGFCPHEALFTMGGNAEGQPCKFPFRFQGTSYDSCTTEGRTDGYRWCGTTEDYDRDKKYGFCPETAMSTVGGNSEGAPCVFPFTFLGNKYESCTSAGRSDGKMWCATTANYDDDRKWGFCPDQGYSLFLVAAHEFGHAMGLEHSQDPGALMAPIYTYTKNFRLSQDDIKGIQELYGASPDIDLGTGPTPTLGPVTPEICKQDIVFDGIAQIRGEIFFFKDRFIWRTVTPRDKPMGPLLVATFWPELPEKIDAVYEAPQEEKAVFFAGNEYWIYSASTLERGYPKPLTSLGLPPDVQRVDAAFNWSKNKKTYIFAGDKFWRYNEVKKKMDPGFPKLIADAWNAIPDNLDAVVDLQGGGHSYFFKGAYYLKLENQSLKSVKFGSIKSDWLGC
Description: as §1, §2, §3

MMP-9 = MMP-9 (Homo sapiens, UniProt P14780); experiment: MMP-9 colorimetric assay kit (Biomol AK-410); type: biochemical
Description: as §1, §2, §3

MMP-8 = MMP-8 (Homo sapiens, UniProt P22894); experiment: MMP-8 colorimetric assay kit (Biomol AK-414); type: biochemical
Description: as §1, §2, §3

MMP-12 = MMP-12 (Homo sapiens, UniProt P39900); experiment: MMP-12 colorimetric assay kit (Biomol AK-402); type: biochemical
Description: as §1, §2, §3

[1] = test system: ApoE −/− mice, carotid artery; experiment: Biodistribution in ApoE ligation model of atherosclerosis (ligated and sham); type: in vivo
Description: ApoE −/− mice are transgenic knock-out mice, which lack the ApoE gene, and are therefore unable to regulate their plasma cholesterol levels. As a consequence ApoE mice develop atherosclerotic lesions, a process which is accelerated with feeding of high fat diet. Further acceleration of lesion development can be achieved by ligating the carotid artery, resulting in advanced lesion formation within 4 weeks of surgery and high fat diet feeding.
Two controls have been used for these experiments: (1) ApoE sham animals in which the mice undergo the same surgical intervention but the sture is only passed beneath the carotid and then removed and, (2) C57BL/6 ligtaed animals which undergo the same surgical ligation and high fat feeding as the ApoE ligated mice. Literature reports have stated that these animals do have some level of tissue remodelling, but with lower active MMP levels [Ivan et al, Circulation, 105, 2686-2691 (2002)].

[2] = test system: Lewis lung carcinoma (LLC) tumour; experiment: Biodistribution in LLC tumour model in vivo; set-up: species or system C57BL/6 mice
Description: 1×10^6 Lewis lung carcinoma (LLC) cells are injected subcutaneously into right inner thigh of C57BL/6 mice. Tumours were allowed to grow for 15 days prior to biodistribution being carried out.
Biodistribution studies were performed in the LLC tumour model.
Biodistribution was performed in the LLC tumour model of Example 23 with Compounds 46B and 48B.

[3] = ApoE Ligated, 5 min post injection
[4] = ApoE Ligated, 60 min post injection
[5] = ApoE Sham, 60 min post injection

MMP-8, sequence (P22894 101-467): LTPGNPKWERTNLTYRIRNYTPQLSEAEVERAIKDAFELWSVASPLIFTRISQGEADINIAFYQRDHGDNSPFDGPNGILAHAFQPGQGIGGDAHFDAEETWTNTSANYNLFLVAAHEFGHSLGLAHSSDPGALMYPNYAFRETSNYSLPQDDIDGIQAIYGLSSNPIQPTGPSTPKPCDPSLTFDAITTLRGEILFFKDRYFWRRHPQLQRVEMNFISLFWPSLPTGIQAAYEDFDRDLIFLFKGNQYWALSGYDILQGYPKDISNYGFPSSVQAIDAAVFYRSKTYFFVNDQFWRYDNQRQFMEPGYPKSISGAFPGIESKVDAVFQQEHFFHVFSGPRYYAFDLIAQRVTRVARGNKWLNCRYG
MMP-12, sequence (P39900 106-470): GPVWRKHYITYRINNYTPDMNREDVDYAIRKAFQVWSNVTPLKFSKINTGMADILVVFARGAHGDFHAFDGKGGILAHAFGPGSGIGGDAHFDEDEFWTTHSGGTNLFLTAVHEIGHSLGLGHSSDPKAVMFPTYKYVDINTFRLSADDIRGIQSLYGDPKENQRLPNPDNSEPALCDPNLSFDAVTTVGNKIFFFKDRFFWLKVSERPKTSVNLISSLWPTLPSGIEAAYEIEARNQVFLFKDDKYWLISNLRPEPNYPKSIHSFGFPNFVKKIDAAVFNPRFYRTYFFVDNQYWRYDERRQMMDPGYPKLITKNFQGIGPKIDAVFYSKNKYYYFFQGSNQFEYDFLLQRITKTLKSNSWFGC
MMP-9, sequence (P14780 94-707): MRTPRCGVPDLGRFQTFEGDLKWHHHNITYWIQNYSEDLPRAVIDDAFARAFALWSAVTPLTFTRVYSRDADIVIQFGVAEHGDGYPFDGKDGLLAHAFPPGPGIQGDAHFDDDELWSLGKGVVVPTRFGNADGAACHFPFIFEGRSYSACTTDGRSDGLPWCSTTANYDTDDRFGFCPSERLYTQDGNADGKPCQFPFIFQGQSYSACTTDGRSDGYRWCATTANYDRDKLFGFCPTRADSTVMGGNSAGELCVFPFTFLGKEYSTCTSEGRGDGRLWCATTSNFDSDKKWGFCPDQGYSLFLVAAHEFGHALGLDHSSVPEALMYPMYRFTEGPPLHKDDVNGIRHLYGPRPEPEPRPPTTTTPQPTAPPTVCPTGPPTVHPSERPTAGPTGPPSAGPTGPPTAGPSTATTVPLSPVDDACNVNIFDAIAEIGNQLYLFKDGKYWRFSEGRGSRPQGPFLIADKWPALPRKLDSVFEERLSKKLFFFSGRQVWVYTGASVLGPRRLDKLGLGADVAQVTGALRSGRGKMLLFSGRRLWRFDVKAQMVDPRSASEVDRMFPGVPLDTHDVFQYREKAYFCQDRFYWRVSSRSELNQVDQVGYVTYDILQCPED

NC(=O)[C@H](Cc1ccc(O)c(I)c1)NC(=O)[C@H](CCC(=O)O)NC(=O)[C@H](CCC(=O)O)NC(=O)[C@H](CCC(=O)O)NC(=O)[C@H](CCC(=O)O)NC(=O)[C@H](CCC(=O)O)NC(=O)CCN(C1(C(=O)NO)CCCC1)S(=O)(=O)c1ccc(Oc2ccc(F)cc2)cc1 [Compound 21] (X1-[X2]EEEEE[Tyr(3-I)]-NH2)
Ki (MMP-1): 195 nM
Ki (MMP-2): 1.15 nM
Ki (MMP-9): 0.82 nM
Ki (MMP-8): 0.87 nM

O=C(CCN(C1(C(=O)NO)CCCC1)S(=O)(=O)c1ccc(Oc2ccc(F)cc2)cc1)NCCc1ccc(O)c(I)c1 [Compound 24]
Ki (MMP-12): 0.67 nM
Ki (MMP-1): 4950 nM
Ki (MMP-2): 0.14 nM
Ki (MMP-9): 0.58 nM
Ki (MMP-8): 3.93 nM

NC(=O)[C@H](Cc1ccc(O)c(I)c1)NC(=O)CCOCCOCCOCCOCCOCCOCCOCCOCCOCCOCCOCCNC(=O)CCOCCOCCOCCOCCOCCOCCOCCOCCOCCOCCOCCNC(=O)CCN(C1(C(=O)NO)CCCC1)S(=O)(=O)c1ccc(Oc2ccc(F)cc2)cc1 [Compound 32]
Ki (MMP-12): 0.89 nM
Ki (MMP-1): 330 nM
Ki (MMP-2): 0.62 nM
Ki (MMP-9): 0.37 nM
Ki (MMP-8): 2.17 nM

NC(=O)[C@H](Cc1ccc(O)c(I)c1)NC(=O)COCC(=O)NCCOCCOCCOCCNC(=O)[C@H](CCC(=O)O)NC(=O)[C@H](CCC(=O)O)NC(=O)[C@H](CCC(=O)O)NC(=O)[C@H](CCC(=O)O)NC(=O)[C@H](CCC(=O)O)NC(=O)CCN(C1(C(=O)NO)CCCC1)S(=O)(=O)c1ccc(Oc2ccc(F)cc2)cc1 [Compound 38]
Ki (MMP-12): 0.05 nM
Ki (MMP-2): 1.25 nM
Ki (MMP-9): 0.99 nM

NCCCC[C@H](NC(=O)CCN(C1(C(=O)NO)CCCC1)S(=O)(=O)c1ccc(Oc2ccc(F)cc2)cc1)C(=O)N[C@@H](CCCCN)C(=O)N[C@@H](CCCCN)C(=O)N[C@@H](CCCCN)C(=O)N[C@@H](CCCCN)C(=O)NCCOCCOCCOCCNC(=O)COCC(=O)N[C@@H](Cc1ccc(O)c(I)c1)C(N)=O [Compound 42]
Ki (MMP-2): 2.19 nM
Ki (MMP-9): 0.585 nM

NC(=O)[C@H](Cc1ccc(O)c(I)c1)NC(=O)CCOCCOCCOCCOCCOCCOCCOCCOCCOCCOCCOCCNC(=O)CCN(C1(C(=O)NO)CCCC1)S(=O)(=O)c1ccc(Oc2ccc(F)cc2)cc1 [Compound 44]
Ki (MMP-2): 0.25 nM
Ki (MMP-9): 0.076 nM

NC(=O)[C@H](CCCCNC(=O)CON=Cc1ccc(F)cc1)NC(=O)CCN(C1(C(=O)NO)CCCC1)S(=O)(=O)c1ccc(Oc2ccc(F)cc2)cc1 [Compound 46]
Ki (MMP-12): 0.17 nM
Ki (MMP-1): 172 nM
Ki (MMP-2): 1.96 nM
Ki (MMP-9): 0.44 nM
Ki (MMP-8): 0.52 nM

NC(=O)[C@H](CCCCNC(=O)CON=Cc1ccc([18F])cc1)NC(=O)CCOCCOCCOCCOCCOCCOCCOCCOCCOCCOCCOCCNC(=O)CCOCCOCCOCCOCCOCCOCCOCCOCCOCCOCCOCCNC(=O)CCN(C1(C(=O)NO)CCCC1)S(=O)(=O)c1ccc(Oc2ccc(F)cc2)cc1 [Compound 48B]
% ID/G Carotid, mean [1, 3]: 12.01 % ID/G
Carotid/Blood, mean [1, 3]: 0.40
Carotid/Heart, mean [1, 3]: 1.27
Carotid/Lung, mean [1, 3]: 0.75
% ID/G Carotid, mean [1, 4]: 10.34 % ID/G
Carotid/Blood, mean [1, 4]: 0.96
Carotid/Heart, mean [1, 4]: 2.71
Carotid/Lung, mean [1, 4]: 1.42
% ID/G Carotid, mean [1, 5]: 2.37 % ID/G
Carotid/Blood, mean [1, 5]: 0.2
Carotid/Heart, mean [1, 5]: 0.81
Carotid/Lung, mean [1, 5]: 0.25
% ID Urinary (urinary excretion), mean ([2]; 5 min post injection): 0.24 % ID
% ID/g Tumour, mean ([2]; 5 min post injection): 2.53 % ID/g
Tumour/Blood, mean ([2]; 5 min post injection): 0.11
Tumour/Heart, mean ([2]; 5 min post injection): 0.40
Tumour/Lung, mean ([2]; 5 min post injection): 0.26
Tumour/Muscle, mean ([2]; 5 min post injection): 1.55
% ID Urinary (urinary excretion), mean ([2]; 30 min post injection): 15.29 % ID
% ID/g Tumour, mean ([2]; 30 min post injection): 2.33 % ID/g
Tumour/Blood, mean ([2]; 30 min post injection): 0.24
Tumour/Heart, mean ([2]; 30 min post injection): 0.84
Tumour/Lung, mean ([2]; 30 min post injection): 0.47
Tumour/Muscle, mean ([2]; 30 min post injection): 2.92
% ID Urinary (urinary excretion), mean ([2]; 60 min post injection): 56.89 % ID
% ID/g Tumour, mean ([2]; 60 min post injection): 1.81 % ID/g
Tumour/Blood, mean ([2]; 60 min post injection): 0.51
Tumour/Heart, mean ([2]; 60 min post injection): 1.69
Tumour/Lung, mean ([2]; 60 min post injection): 0.95
Tumour/Muscle, mean ([2]; 60 min post injection): 4.40
% ID Urinary (urinary excretion), mean ([2]; 120 min post injection): 59.33 % ID
% ID/g Tumour, mean ([2]; 120 min post injection): 1.62 % ID/g
Tumour/Blood, mean ([2]; 120 min post injection): 0.41
Tumour/Heart, mean ([2]; 120 min post injection): 1.52
Tumour/Lung, mean ([2]; 120 min post injection): 0.77
Tumour/Muscle, mean ([2]; 120 min post injection): 3.55

NC(=O)[C@H](CCCCNC(=O)CON=Cc1ccc(F)cc1)NC(=O)CCOCCOCCOCCOCCOCCOCCOCCOCCOCCOCCOCCNC(=O)CCOCCOCCOCCOCCOCCOCCOCCOCCOCCOCCOCCNC(=O)CCN(C1(C(=O)NO)CCCC1)S(=O)(=O)c1ccc(Oc2ccc(F)cc2)cc1 [Compound 48]
Ki (MMP-1): 33.3 nM
Ki (MMP-9): 0.2 nM
Ki (MMP-8): 0.5 nM
